pIC50: −log10 of the molar value. Read-outs that look alike come from different tables or passages of the source.
How the values were obtained:
CD45 = molecular target: T1, CD45 (Homo sapiens, UniProt P08575); assay: Counter-screen phosphatase assay CD45; assay type: biochemical; details: Table II
T1 construct: The catalytic domain of CD45 was purchased from Biomol Inc; purchased Biomol Inc
T1 sequence (P08575 653-912 limits assumed): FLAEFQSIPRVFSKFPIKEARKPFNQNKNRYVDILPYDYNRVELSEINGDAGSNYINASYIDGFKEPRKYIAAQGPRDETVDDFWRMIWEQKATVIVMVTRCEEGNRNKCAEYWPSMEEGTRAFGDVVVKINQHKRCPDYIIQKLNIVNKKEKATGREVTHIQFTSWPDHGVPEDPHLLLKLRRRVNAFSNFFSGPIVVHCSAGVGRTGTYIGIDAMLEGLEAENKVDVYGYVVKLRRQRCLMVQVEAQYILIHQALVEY
Experimental: Materials, chemicals and enzymes. All chemicals were purchased from commercial sources unless otherwise noted. Compounds were dissolved in DMSO, and stock solutions were stored at −20° C. The catalytic domain of CD45 was purchased from Biomol Inc.

LMPTP-A = molecular target: T2, LMPTP-A (Homo sapiens, UniProt P24666); assay: biochemical
T2 sequence (P24666 1-158): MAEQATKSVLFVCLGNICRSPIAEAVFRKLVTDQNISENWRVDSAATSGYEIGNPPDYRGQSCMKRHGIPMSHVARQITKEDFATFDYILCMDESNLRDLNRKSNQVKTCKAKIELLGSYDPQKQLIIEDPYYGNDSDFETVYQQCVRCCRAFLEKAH

PTP-PEST = molecular target: T3, PTP-PEST (Homo sapiens, UniProt Q05209); assay: Counter-screen phosphatase assay PTP-PEST; assay type: biochemical
T3 sequence (Q05209 2-323): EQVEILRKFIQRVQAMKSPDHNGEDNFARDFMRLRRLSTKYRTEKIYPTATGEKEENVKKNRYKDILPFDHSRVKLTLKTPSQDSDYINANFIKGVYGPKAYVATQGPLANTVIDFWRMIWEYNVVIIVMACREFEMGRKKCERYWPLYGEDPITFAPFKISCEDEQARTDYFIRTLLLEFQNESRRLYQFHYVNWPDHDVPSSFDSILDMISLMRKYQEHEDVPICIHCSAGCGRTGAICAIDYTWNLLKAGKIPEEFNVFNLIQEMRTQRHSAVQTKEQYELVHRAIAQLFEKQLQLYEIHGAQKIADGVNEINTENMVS

[1] = tested on: TCR-induced phosphorylation of SLP-76; assay: Phospho-flow cytometry of JTAg cells, anti-pSLP76 (Tyr128); details: 50 μM, 1 h, compared to control
Experimental: Phosphoflow cytometry. Phospho-flow cytometry was performed on JTAg cells following published protocols (BD Biosciences). […] Cell fluorescence was assessed on a Cytomics FC500 cytometer (Beckman Coulter) at the USC Immune Monitoring Core. Data Analysis and graph preparation were carried using FlowJo (Tree Star, Inc., Ashland, Oreg.).

[2] = tested on: phosphorylation of Lck at Tyr394; assay: Anti-pSrc (Tyr416) immunoblot of thymocytes from PTPN22-/- mice; details: 50 μM, 1 h, anti-CD3/anti-CD4 plus streptavidin
Experimental: (§1) The volume of DMSO added was held constant at less than 2% of the total volume. Thymocytes pre-incubated with DMSO or inhibitor were divided into 200 μL aliquots containing 10×10^6 cells, treated with biotinylated CD3 and CD4 antibodies for 30 min and stimulated with the crosslinker, streptavidin for 1.5 min, or left untreated.
(§2) Aliquots of lysates were suspended in SDS sample buffer, heated at 95° C. for 5 minutes and the boiled samples run on 10% SDS-polyacrylamide gels. Proteins resolved by gel electrophoresis were transferred onto nitrocellulose membranes (Hybond ECL, GE Healthcare), using appropriate dilutions of unconjugated primary antibodies followed by HRP-conjugated secondary antibodies (purchased from GE Healthcare). Blots were developed with the enhanced chemiluminescence detection system, ECL-Plus, following manufacturers directions.
(§3) In parallel, the compound was also tested on T cells from normal PTPN22+/+ mice.

ERK1/2 phosphorylation = assay: Anti-pERK1/2 blot of JTAg cells; details: 50 μM, 1 h
Experimental: (§4) The volume of DMSO added was held constant at less than 2% of the total volume. JTAg cells pre-incubated with DMSO or inhibitor were divided into 400 μL aliquots containing 10×10^6 cells and stimulated with supernatants of C305 hybridoma (31) for 2 min or left untreated. […] The total protein concentration in each cell lysate was determined by the Bradford protein assay (Bio-Rad) in order to normalize the amount of protein used in SDS-PAGE.
as §2

[3] = tested on: phosphorylation of ZAP-70; assay: Anti-pZAP (Tyr319) blot of JTAg cells; details: 50 μM, 1 h
Experimental: as §4, §2

[4] = tested on: phosphorylation of Lck at Tyr394; assay: Anti-pSrc (Tyr416) immunoblot of thymocytes from PTPN22+/+ mice; details: 50 μM, 1 h, anti-CD3/anti-CD4 plus streptavidin
Experimental: as §1, §2, §3

HePTP = molecular target: T4, HePTP (Homo sapiens, UniProt P35236); assay: biochemical
T4 sequence (P35236 65-360): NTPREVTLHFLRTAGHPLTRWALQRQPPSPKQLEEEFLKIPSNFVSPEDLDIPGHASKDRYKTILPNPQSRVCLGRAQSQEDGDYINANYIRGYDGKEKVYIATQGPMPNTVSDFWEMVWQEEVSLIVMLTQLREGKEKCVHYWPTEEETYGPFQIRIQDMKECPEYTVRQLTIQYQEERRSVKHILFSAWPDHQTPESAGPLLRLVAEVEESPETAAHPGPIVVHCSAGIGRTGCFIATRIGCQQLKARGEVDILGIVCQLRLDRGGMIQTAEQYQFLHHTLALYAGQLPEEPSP

LYP/PTPN22 = molecular target: T5, LYP/PTPN22 (Homo sapiens, UniProt Q9Y2R2); assay: biochemical
T5 construct: catalytic domains of LYP (aa 2-309) and PTP-PEST (aa 2-323, PEST); 6xHis (N, cleaved yes); made in house; host or cells: E. coli BL21
T5 sequence (Q9Y2R2 2-309): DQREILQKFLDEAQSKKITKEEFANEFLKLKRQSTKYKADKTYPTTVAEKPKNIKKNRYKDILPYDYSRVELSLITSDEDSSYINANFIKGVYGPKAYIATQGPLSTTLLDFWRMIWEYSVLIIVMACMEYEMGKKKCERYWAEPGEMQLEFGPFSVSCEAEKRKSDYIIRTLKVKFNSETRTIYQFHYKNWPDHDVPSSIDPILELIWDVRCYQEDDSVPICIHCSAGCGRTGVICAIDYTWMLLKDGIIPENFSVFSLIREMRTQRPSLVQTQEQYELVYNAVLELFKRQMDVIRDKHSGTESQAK
Experimental: Chemical Library Screening for LYP Inhibitors. A library consisting of a highly diverse set of 4,000 compounds was screened in a 96-well format in an assay specific for LYP activity. […] The reaction mixture with the compounds was incubated for 25 min at 37° C. […] All assays were done in triplicate. The IC50 values were then determined for each drug from a plot of log [drug concentration] versus percentage of enzyme inhibition. Absorbance data were measured using a Molecular Devices Emax Precision Microplate reader.
Identification of Compounds as LYP Inhibitors. We initially screened a library of 4000 drug-like small-molecule compounds against LYP/PTPN22, using p-nitrophenyl phosphate (pNPP) as a substrate. The ability of the library members to inhibit LYP/PTPN22 catalyzed hydrolysis of pNPP was measured in a buffer containing 50 mM Bis-Tris pH 6.0, 1 mM DTT at 37° C.

[5] = LYP IC50, Table IV, analogues of E3P13
[6] = selectivity, ratio PEST IC50 / LYP IC50, Table IV

Compound | pIC50 (PTP-PEST; read-out: PEST IC50) | pIC50 (LYP/PTPN22; [5]) | PEST_LYP (LYP/PTPN22; [6]) | also measured
COc1ccc(-n2ncc3c(SCC(=O)N4c5ccccc5CC4C)ncnc32)cc1 (racemic) [B11P32] |  |  |  | pIC50 (CD45): < 4.05; pIC50 (LMPTP-A): < 4.05; pIC50 (PTP-PEST; Table II, read-out: PTP-PEST IC50): < 4.40
Cc1ccc2[nH]c(=O)c(C(c3nnnn3C3CCCC3)N3CCCC4(CCCCC4)C3)cc2c1 (racemic) [E3P13] |  |  |  | TCR-induced SLP-76 phosphorylation [1]: higher levels of TCR-induced SLP-76 phosphorylation; phosphorylation of Lck at Tyr394 [2]: no effect; ERK1/2 phosphorylation (ERK1/2 phosphorylation): increased ERK1/2 phosphorylation; TCR-stimulated phosphorylation of ZAP-70 (Tyr319) [3]: increased TCR-stimulated phosphorylation of ZAP-70; Lck phosphorylation at Tyr394 [4]: increased Lck phosphorylation at Tyr394
O=C(CSc1nc(C2CC2)nc2sc3c(c12)CCCC3)NCc1ccc2c(c1)OCO2 [G8P15] |  |  |  | pIC50 (CD45): < 4.05; pIC50 (LMPTP-A): < 4.05; pIC50 (HePTP): < 4.40
Cc1cc(C)c2cc([C@H](c3nnnn3C(C)(C)C)N3CCCC4(CCCCC4)C3)c(=O)[nH]c2c1 [compound 28] | 4.58 | 4.71 | 1.33 | 
Cc1ccc2cc([C@H](c3nnnn3C(C)(C)C)N3CCCC4(CCCCC4)C3)c(=O)[nH]c2c1 [compound 29] | 4.57 | 4.69 | 1.33 | 
Cc1cc(C)c2[nH]c(=O)c(C(c3nnnn3C3CCCC3)N3CCCC4(CCCCC4)C3)cc2c1 (stereo not shown) [compound 30] | 4.51 |  |  | PEST_LYP (LYP/PTPN22): 1.53; pIC50 (LYP/PTPN22; LYP IC50): 4.69
CCC(C)(C)n1nnnc1[C@@H](c1cc2ccc(OC)cc2[nH]c1=O)N1CCCC2(CCCCC2)C1 [compound 35] | 4.52 | 4.65 | 1.33 | 
Cc1ccc2[nH]c(=O)c([C@H](c3nnnn3C3CCCC3)N3CCN(c4ccccc4F)CC3)cc2c1 [compound 36] | 4.64 |  |  | PEST_LYP (LYP/PTPN22): 0.92
Cc1ccc2[nH]c(=O)c([C@H](c3nnnn3C3CCCC3)N3CCN(c4nc5ccccc5[nH]4)CC3)cc2c1 [compound 38] | 4.41 | 4.52 | 1.26 | 
Cc1ccc2[nH]c(=O)c([C@@H](c3nnnn3C3CCCC3)N3CCc4ccccc4C3)cc2c1 [compound 39] | 4.41 | 4.52 | 1.28 | 
Cc1ccc2cc([C@H](c3nnnn3C3CCCC3)N3CCN(c4ccccc4)CC3)c(=O)[nH]c2c1 [compound 41] | ~4.44 | 4.51 | ~1.18 | 
Cc1ccc2cc([C@H](c3nnnn3C3CCCC3)N3CCC[C@@H](C)C3)c(=O)[nH]c2c1 [compound 43] | 4.10 | 4.50 | 2.52 | 
Cc1ccc2[nH]c(=O)c([C@H](c3nnnn3C3CCCC3)N3CCN(c4ccccc4)CC3)cc2c1 [compound 47] | 4.49 |  |  | PEST_LYP (LYP/PTPN22): 0.89; pIC50 (LYP/PTPN22; LYP IC50): 4.44
Cc1cc(C)c2[nH]c(=O)c([C@H](c3nnnn3C3CCCC3)N3CCC[C@@H](C)C3)cc2c1 [compound 49] | 4.34 | 4.40 | 1.15 | 

The next lines start with results.

pIC50 (PTP-PEST; read-out: PEST IC50) | pIC50 (LYP/PTPN22; [5]) | PEST_LYP (LYP/PTPN22; [6]) | Compound | also measured
4.86 | 4.71 | 0.71 | COc1ccc2cc([C@H](c3nnnn3Cc3ccccc3)N3CCCC4(CCCCC4)C3)c(=O)[nH]c2c1 [compound 27] | 
4.53 | 4.69 | 1.46 | Cc1cccc2cc([C@H](c3nnnn3Cc3ccccc3)N3CCCC4(CCCCC4)C3)c(=O)[nH]c12 [compound 31] | 
4.50 |  |  | Cc1ccc2[nH]c(=O)c([C@H](c3nnnn3C3CCCC3)N3CCC(C)CC3)cc2c1 [compound 32] | PEST_LYP (LYP/PTPN22): 1.52; pIC50 (LYP/PTPN22; LYP IC50): 4.69
4.55 | 4.67 | 1.33 | Cc1ccc2[nH]c(=O)c([C@H](c3nnnn3C(C)(C)C)N3CCCC4(CCCCC4)C3)cc2c1 [compound 33] | 
4.47 | 4.67 | 1.6 | CCC(C)(C)n1nnnc1[C@@H](c1cc2ccc(C)cc2[nH]c1=O)N1CCCC2(CCCCC2)C1 [compound 34] | 
4.50 | 4.55 | 1.13 | O=c1[nH]c2ccccc2cc1[C@@H](c1nnnn1C1CCCC1)N1CCc2ccccc2C1 [compound 37] | 
4.46 | 4.51 | 1.12 | Cc1cc(C)c2cc([C@H](c3nnnn3C3CCCC3)N3CCC[C@@H](C)C3)c(=O)[nH]c2c1 [compound 40] | 
4.39 |  |  | COc1ccc(N2CCN([C@H](c3cc4cc(C)ccc4[nH]c3=O)c3nnnn3C3CCCC3)CC2)cc1 [compound 42] | PEST_LYP (LYP/PTPN22): 1.27; pIC50 (LYP/PTPN22; LYP IC50): 4.50
4.16 | 4.49 | 2.11 | Cc1ccc2cc([C@@H](c3nnnn3C3CCCC3)N3CCCCC3)c(=O)[nH]c2c1 [compound 44] | 

From patent publication US20100210836A1, “SMALL MOLECULE INHIBITORS OF LYMPHOID TYROSINE PHOSPHATASE” (University of Southern California, priority 2009, published 2010)
